This is an account of results in US20220257764A1, “USE OF DIKETONE COMPOUND IN PHOTODYNAMIC THERAPY OR DIAGNOSIS” (BEIJING WHOLESOMETECH CO., LTD., priority 2019, published 2022).

Read-outs that look alike come from different tables or passages of the source.

The assay relates to Escherichia coli. Description: Inhibitory effect on bacteria (colony counting), under light and in the dark. In kind it is cell-based. As to conditions: 60 mM. As for the experimental part:
A single Escherichia coli colony was transferred from a solid Luria Bertani (LB) agar plate to 5 ml liquid LB medium and incubated at 37° C. for 12 h. Bacteria were collected by centrifugation (7000 rpm, 1 min) and washed with PBS buffer three times. The supernatant was discarded, and the remaining Escherichia coli cells were resuspended in the PBS buffer. The bacterial suspension was adjusted to make its optical density (OD600) to 1.0. The suspension was then diluted (5 times) with PBS buffer. The diluted Escherichia coli cell suspension was incubated in the dark at 37° C. for 15 min in the presence of a photosensitizer (diketone compound) solution with a concentration of 60 mM, and then irradiated for 200 s under a 15 mW/cm^2 laser light (with a wavelength of 450 nm to 480 nm and in the final light dose of about 3 J cm^2), and after the irradiation the bacterial suspension was serially diluted (10^4 times) with PBS buffer. 100 μL of the diluted bacterial Escherichia coli cell was dispersed on a solid LB agar plate and incubated at 37° C. for 12 h to 16 h, and colonies formed were counted. In the meanwhile, a treated group in the dark and an untreated group in the dark were set; the inhibition rate was determined by dividing the number of colony forming units (cfu) killed in the treated group under light or the treated group in the dark by the number of colony forming units (cfu) killed in the untreated group in the dark.

On to `CC(=O)C(C)=O` [BJMU-204], for which the inhibition at 60000 µM is, setting by setting: (450-480 nm laser, 15 mW/cm^2, 200 s, read-out: Inhibition rate under light) 96%; (in the dark, read-out: Inhibition rate in the dark) 10.3%.
